{"source": "patent US12503437B2", "about": "“1,1-dimethyl-2-[(E)-2-phenylethenyl]-1H-benzo[e]indole derivatives and uses thereof” (Kaunas University of Technology, priority 2023, dated 2025)", "key": {"G361 cells [1]": {"test_system": "G361 cells", "assay": "Flow cytometric detection of cell death (sub-G1 populations)", "assay_type": "cell-based, human", "conditions": "for number of cells in sub-G1 population: G361 cells", "procedure": "(§1) For photodynamic treatments, G361 cells (human skin melanoma) were cultivated in DMEM medium without phenol red supplemented with 10% fetal bovine serum, 100 U/mL penicillin, 100 μg/mL streptomycin, 2 mM glutamine, at 37° C. in 5% CO2 atmosphere. Cells were treated with test compounds and after 4 h were irradiated (the maximal wavelength emission of 414 nm and different total doses up to 10 J/cm^2). Further cultivation lasted for subsequent 16, 24 or 72 h.\nAsynchronous cells were seeded and, after a pre-incubation period, treated with compound 3g for 4 h, irradiated and after further 24 h of incubation, samples were fixed and stained with propidium iodide. DNA content was analyzed by flow cytometry using a 488 nm laser (BD FACS Verse with software BD FACSuite™, version 1.0.6.) and cell cycle distribution was analyzed using ModFit LT (Verity Software House)."}, "G361 cells [2]": {"test_system": "G361 cells", "assay": "Evaluation of cellular viability by microscopy (propidium iodide staining)", "assay_type": "cell-based, human", "conditions": "1.1 μM+10 J/cm^2, 16 h after irradiation", "procedure": "G361 cells were treated with compound 3g, 4 h later irradiated with 10 J/cm^2 and further cultivated for 16 h. Control cells were treated with the same compound without irradiation. After the incubation period, cells were stained with propidium iodide (final concentration 10 μg/mL) to evaluate their viability by fluorescence microscopy. In parallel, the morphology of treated cells was evaluated by light microscopy. Experiment clearly confirmed the ability of compound 3g to affect cellular viability after light irradiation in dose-dependent manner as shown by positive propidium iodide staining (>95% of analyzed cells at 1.1 μM of compound 3g+10 J/cm^2) as well as significant morphological changes reflecting ongoing cellular death (FIG. 3)."}, "[3]": {"assay": "Absorption and fluorescence properties in water", "assay_type": "physicochemical", "procedure": "To determine the wavelength of light, at which 1,1-dimethyl-2-[(E)-2-phenylethenyl]-1H-benzo[e]indole derivatives should be irradiated for the investigation of their photodynamic activity, the absorption and fluorescence properties thereof were measured in water. The excitation wavelength λex was set to 380 nm. Based on the results an in-house constructed LED based light source specifically designed for the irradiation of 96-well microplates and Petri dishes (Tomecka et al., CZ302829B6, 2006) was chosen, with a maximal wavelength emission of 414 nm and light intensity set to 20 mW/cm^2."}, "G361 cells [4]": {"test_system": "G361 cells", "assay": "DNA damage and apoptotic cell death by immunoblotting analysis", "assay_type": "cell-based, human", "conditions": "24 h", "procedure": "To confirm DNA damage caused by a combination of compound 3g and irradiation in G361 cells, phosphorylation of histone H2A.X at Ser-139 (γH2A.X), which is a well-accepted marker of DNA damage, was evaluated using immunoblotting analysis (FIG. 2). The cells were treated with different doses (0.1, 0.3 or 1.1 μM) of compound 3g for 4 h, then either kept in dark or exposed to light with a total irradiation dose of 10 J/cm^2 and cultivated for subsequent 24 h. After this period, the cells were harvested and analyzed by immunoblotting.\nThe cell lysates were prepared in RIPA buffer. Equal protein amounts were loaded and separated on SDS-polyacrylamide gels, electroblotted onto nitrocellulose membranes and after blocking, overnight incubation with specific primary antibodies and incubation with peroxidase-conjugated secondary antibodies, the peroxidase activity was detected with SuperSignal West Pico reagents (Thermo Scientific) using a CCD camera LAS-4000 (Fujifilm). All primary antibodies were diluted in TBS containing 4% BSA and 0.1% Tween 20. The specific antibodies were purchased from Cell Signaling (anti-PARP-1, clone 46D11; anti-caspase 7; HRP-linked secondary antibodies), Santa Cruz Biotechnology (anti-β-actin, clone C4), Millipore (anti-phospho-histone H2A.X, Ser139, clone JBW301).\nThe cleavage of PARP-1, an enzyme involved in DNA repair, which gets cut and inactivated by caspases during apoptotic cell death, was also apparent when combining said concentration and irradiation dose. […] It confirms that the above observation is a consequence of a photodynamic effect."}, "caspases 3 and 7": {"test_system": "caspases 3 and 7", "assay": "Caspase-3/7 assay", "assay_type": "cell-based, human", "conditions": "G361 cells; 1.1 μM+10 J/cm^2", "procedure": "The cell lysates were incubated for 4 h with 100 μM Ac-DEVD-AMC (the substrate of caspases 3 and 7) in the assay buffer (25 mM PIPES, 2 mM EGTA, 2 mM MgCl2, 5 mM DTT, pH 7.3). The fluorescence of the product was measured using a Fluoroskan Ascent microplate reader (Labsystems) at 355/460 nm (excitation/emission).\nTo confirm apoptosis as a mechanism of cell death, activity of pro-apoptotic caspases 3 and 7, which are involved in mediating cell death signalling transduction, was quantified upon treatment with compound 3g and light irradiation (FIG. 1)."}, "[5]": {"test_system": "G361 cells (human skin melanoma)", "assay": "MTT cell viability assay with photodynamic treatment", "assay_type": "cell-based", "procedure": "as §1\nCell viability (EC50) was determined using the MTT (Sigma-Aldrich) assay in 96-well microplates. Cells were seeded, next day treated with test compounds for 4 h and subsequently irradiated (the maximal wavelength emission of 414 nm and total dose of 2.5 and 10 J/cm^2). After irradiation, the cells were incubated for further 72 h and then the MTT solution was added. Cells were incubated for another 4 h at 37° C. and then the 0.1% SDS was added to the wells to solubilize the violet formazan crystals. The measurement of absorbance was carried out on reader Tecan Infinite M200Pro at 570 nm. Dark viability was measured in parallel under the same conditions without irradiation."}}, "note": "Read-outs that look alike come from different tables or passages of the source.", "data": [{"smiles": "CC1(C)C(/C=C/c2ccc(C#N)c(F)c2)=Nc2ccc3ccccc3c21", "note": "[Compound 3g, 4-[(E)-2-(1,1-Dimethyl-1H-benzo[e]indol-2-yl)ethenyl]-2-fluorobenzonitrile]", "values": [{"measurement": "number of cells in sub-G1 population", "setting": "G361 cells [1]; 0.3 μM, 1.1 J/cm^2, 24 h after irradiation", "value": "0 (number of cells in sub-G1 population <10% (0))"}, {"measurement": "number of cells in sub-G1 population", "setting": "G361 cells [1]; 0.3 μM, 3.3 J/cm^2, 24 h after irradiation", "value": "0 (number of cells in sub-G1 population <10% (0))"}, {"measurement": "number of cells in sub-G1 population", "setting": "G361 cells [1]; 0.3 μM, Dark, 24 h", "value": "0 (number of cells in sub-G1 population <10% (0))"}, {"measurement": "number of cells in sub-G1 population", "setting": "G361 cells [1]; 1.1 μM, 1.1 J/cm^2, 24 h after irradiation", "value": "0 (number of cells in sub-G1 population <10% (0))"}, {"measurement": "number of cells in sub-G1 population", "setting": "G361 cells [1]; 1.1 μM, 3.3 J/cm^2, 24 h after irradiation", "value": "+ (10-50% (+))"}, {"measurement": "number of cells in sub-G1 population", "setting": "G361 cells [1]; 1.1 μM, Dark, 24 h", "value": "0 (number of cells in sub-G1 population <10% (0))"}, {"measurement": "number of cells in sub-G1 population", "setting": "G361 cells [1]; 3.3 μM, 1.1 J/cm^2, 24 h after irradiation", "value": "+ (10-50% (+))"}, {"measurement": "number of cells in sub-G1 population", "setting": "G361 cells [1]; 3.3 μM, 3.3 J/cm^2, 24 h after irradiation", "value": "++ (>50% (++))"}, {"measurement": "number of cells in sub-G1 population", "setting": "G361 cells [1]; 3.3 μM, Dark, 24 h", "value": "0 (number of cells in sub-G1 population <10% (0))"}, {"measurement": "sub-diploid (sub-G1) populations", "setting": "G361 cells [1]; treated and irradiated G361 cells, concentration and light irradiation dependent", "value": "increase"}, {"measurement": "positive propidium iodide staining", "setting": "G361 cells [2]", "value": "> 95 % of analyzed cells"}, {"measurement": "Stokes shift", "setting": "[3]", "value": 102, "unit": "nm"}, {"measurement": "λabs", "setting": "[3]", "value": 433, "unit": "nm"}, {"measurement": "λem", "setting": "[3]; excitation wavelength 380 nm", "value": 535, "unit": "nm"}, {"measurement": "H2A.X phosphorylation (Ser-139, γH2A.X)", "setting": "G361 cells [4]; G361 cells kept in the dark, 0.1, 0.3 or 1.1 μM", "value": "did not show any H2A.X phosphorylation"}, {"measurement": "H2A.X phosphorylation (Ser-139, γH2A.X) level", "setting": "G361 cells [4]; G361 cells, 1.1 μM+10 J/cm^2", "value": "massive increase"}, {"measurement": "cleavage of PARP-1", "setting": "G361 cells [4]; G361 cells, 1.1 μM+10 J/cm^2", "value": "apparent"}, {"measurement": "caspase 7 cleavage", "setting": "G361 cells [4]; G361 cells, treated and irradiated (10 J/cm^2)", "value": "cleavage activation of caspase 7"}, {"measurement": "capacity to induce apoptosis (caspase 3/7 activity)", "setting": "caspases 3 and 7", "value": "clearly apparent"}, {"measurement": "EC50", "setting": "[5]; G-361, G361 cells, light energy: Dark (Table 4), read-out: EC50 ± SD", "value": "7600 ± 900", "unit": "nM"}, {"measurement": "EC50", "setting": "[5]; G-361, dark kept G361 cells, 4 h treatment, further 72 h, MTT, read-out: G361 - EC50, Dark", "value": 6200, "unit": "nM"}, {"measurement": "EC50", "setting": "[5]; G-361, light or radiation study, G361 cells, light energy 2.5 J/cm^2 (Table 4), read-out: EC50 ± SD", "value": "1200 ± 300", "unit": "nM"}, {"measurement": "EC50", "setting": "[5]; G-361, light or radiation study, G361 cells, light energy 10 J/cm^2 (Table 4), read-out: EC50 ± SD", "value": "700 ± 100", "unit": "nM"}, {"measurement": "EC50", "setting": "[5]; G-361, light or radiation study, light irradiated (414 nm, 10 J/cm^2) G361 cells, 4 h treatment, irradiation, further 72 h, MTT, read-out: G361 - EC50, 10 J/cm^2", "value": 600, "unit": "nM"}]}]}
